Test results as given in US10933061B2 (Shepherd Therapeutics, Inc., priority 2017, dated 2021).
“And” between values parts separate entries of the source, which are not always exact repeats. Equal entries are not always repeated. Where two headings read alike, the source gives them in different places.

Key:
[1] = system: SK-UT-1 leiomyosarcoma cells; assay: Chou-Talalay combination assay, Cell Titer Glo; type: cell-based; details: 72 hour incubation; for CI range: combination with pyrvinium pamoate
Procedure: (§1) Following a 72 hour incubation, cell viability was determined using Cell Titer Glo.

[2] = system: Hs766t pancreatic carcinoma cells; assay: Chou-Talalay combination assay, Cell Titer Glo; type: cell-based; details: combination with pyrvinium pamoate, 72 hour incubation
Procedure: as §1

[3] = system: HepG2 hepatocellular carcinoma cells; assay: Chou-Talalay combination assay, Cell Titer Glo; details: combination with pyrvinium pamoate, 72 hour incubation
Procedure: as §1

[4] = system: HepG2-C3A hepatocellular carcinoma cells; assay: Chou-Talalay combination assay, Cell Titer Glo; details: combination with pyrvinium pamoate, 72 hour incubation
Procedure: as §1

JU-77 mesothelioma cells = assay: Chou-Talalay combination assay, Cell Titer Glo; type: cell-based; details: combination with pyrvinium pamoate, 72 hour incubation
Procedure: as §1

[5] = system: SK-UT-1B leiomyosarcoma cells; assay: Chou-Talalay combination assay, Cell Titer Glo; type: cell-based; details: combination with pyrvinium pamoate, 72 hour incubation
Procedure: as §1

[6] = system: TFK-1 cholangiocarcinoma cells; assay: Chou-Talalay combination assay, Cell Titer Glo; type: cell-based; details: combination with pyrvinium pamoate, 72 hour incubation
Procedure: as §1

[7] = system: SK-LMS-1 leiomyosarcoma cells; assay: Chou-Talalay combination assay, Cell Titer Glo; type: cell-based; details: combination with pyrvinium pamoate, 72 hour incubation
Procedure: as §1

[8] = system: CCC-5 cholangiocarcinoma cells; assay: Chou-Talalay combination assay, Cell Titer Glo; type: cell-based; details: combination with pyrvinium pamoate, 72 hour incubation
Procedure: as §1

[9] = system: BxPC-3 pancreatic carcinoma cells; assay: Chou-Talalay combination assay, Cell Titer Glo; details: 72 hour incubation; for CI range: combination with pyrvinium pamoate
Procedure: as §1

LO-68 mesothelioma cells = assay: Chou-Talalay combination assay, Cell Titer Glo; type: cell-based; details: combination with pyrvinium pamoate, 72 hour incubation
Procedure: as §1

[10] = system: GIST-1 gastrointestinal stromal tumor cells; assay: Chou-Talalay combination assay, Cell Titer Glo; type: cell-based; details: combination with pyrvinium pamoate, 72 hour incubation
Procedure: as §1

[11] = system: Kato-III gastric carcinoma cells; assay: Chou-Talalay combination assay, Cell Titer Glo; type: cell-based
Procedure: as §1

[12] = system: TC-32 Ewing's sarcoma cells; assay: Chou-Talalay combination assay, Cell Titer Glo; type: cell-based; details: combination with pyrvinium pamoate, 72 hour incubation
Procedure: as §1

[13] = system: UM-Chor1 chordoma cell line; assay: Chou-Talalay combination assay, Cell Titer Glo; type: cell-based; details: combination with pyrvinium pamoate, 72 hour incubation
Procedure: as §1

[14] = system: Rh41 rhabdomyosarcoma cells; assay: Chou-Talalay combination assay, Cell Titer Glo; type: cell-based; details: combination with pyrvinium pamoate, 72 hour incubation
Procedure: as §1

[15] = system: SNU-16 gastric carcinoma cells; assay: Chou-Talalay combination assay, Cell Titer Glo; type: cell-based; details: 72 hour incubation; for CI range: combination with pyrvinium pamoate
Procedure: as §1

[16] = system: SW13 adrenocortical carcinoma cells; assay: Chou-Talalay combination assay, Cell Titer Glo; type: cell-based; details: combination with pyrvinium pamoate, 72 hour incubation
Procedure: as §1

[17] = system: HCT116 colorectal carcinoma cells; assay: Chou-Talalay combination assay, Cell Titer Glo; type: cell-based; details: combination with pyrvinium pamoate, 72 hour incubation
Procedure: as §1

[18] = system: CHP-212 neuroblastoma cells; assay: Chou-Talalay combination assay, Cell Titer Glo; type: cell-based; details: combination with pyrvinium pamoate, 72 hour incubation
Procedure: as §1

[19] = system: Colo-205 colorectal carcinoma cells; assay: Chou-Talalay combination assay, Cell Titer Glo; type: cell-based; details: combination with pyrvinium pamoate, 72 hour incubation
Procedure: as §1

[20] = system: COV362 ovarian carcinoma cells; assay: Chou-Talalay combination assay, Cell Titer Glo; type: cell-based; details: combination with pyrvinium pamoate, 72 hour incubation
Procedure: as §1

[21] = system: Flo-1 esophageal carcinoma cells; assay: Chou-Talalay combination assay, Cell Titer Glo; type: cell-based; details: 72 hour incubation; for CI range: combination with pyrvinium pamoate
Procedure: as §1

[22] = system: OE-33 esophageal carcinoma cells; assay: Chou-Talalay combination assay, Cell Titer Glo; type: cell-based; details: combination with pyrvinium pamoate, 72 hour incubation
Procedure: as §1

[23] = system: NCI-H295R adrenocortical carcinoma cells; assay: Chou-Talalay combination assay, Cell Titer Glo; type: cell-based; details: combination with pyrvinium pamoate, 72 hour incubation
Procedure: as §1

[24] = system: Rh30 rhabdomyosarcoma cells; assay: Chou-Talalay combination assay, Cell Titer Glo; type: cell-based; details: combination with pyrvinium pamoate, 72 hour incubation
Procedure: as §1

[25] = system: TOV-112D ovarian carcinoma cells; assay: Chou-Talalay combination assay, Cell Titer Glo; type: cell-based; details: combination with pyrvinium pamoate, 72 hour incubation
Procedure: as §1

[26] = system: TC-71 Ewing's sarcoma cells; assay: Chou-Talalay combination assay, Cell Titer Glo; type: cell-based; details: combination with pyrvinium pamoate, 72 hour incubation
Procedure: as §1

[27] = system: carcinoid tumor cell line STC-1; assay: Chou-Talalay combination assay, Cell Titer Glo; type: cell-based; details: combination with pyrvinium pamoate, 72 hour incubation
Procedure: as §1

[28] = system: SK-N-AS neuroblastoma cells; assay: Chou-Talalay combination assay, Cell Titer Glo; type: cell-based; details: SK-N-AS; combination with pyrvinium pamoate; 72 hour incubation
Procedure: as §1

[29] = system: rare cancer tumor cell lines; assay: Cell viability, panel of rare cancer tumor cell lines; type: cell-based
Procedure: In all cases, including those described below, the viable cells were determined using the CellTiter Glo® kit and a dose response curve to calculate the IC50 was generated using the PRISM software.

[30] = Kato-III, combination with pyrvinium pamoate, 72 hour incubation

## Nc1ccn([C@@H]2O[C@H](CO)[C@@H](O)C2(F)F)c(=O)n1 [Gemcitabine]
[1]
  CI range: (0.118-0.888)
[2]
  CI range: 0.378-0.822
[3]
  CI range: 0.613-0.899
[4]
  CI range: 0.201-0.566
JU-77 mesothelioma cells
  CI range: 0.404-0.725
[5]
  CI range: 0.516-0.687
[6]
  CI range: 0.290-0.851
[7]
  CI range: 0.311-0.774
[8]
  CI range: 0.008-0.729
[9]
  CI range: 0.417-0.851
LO-68 mesothelioma cells
  CI range: 0.047-0.871

## O=P1(NCCCl)OCCCN1CCCl (centres unmarked) [Ifosfamide]
[5]
  CI range: 0.285-0.315

## Cc1ccc(NC(=O)c2ccc(CN3CCN(C)CC3)cc2)cc1Nc1nccc(-c2cccnc2)n1 [Imatinib]
[10]
  CI range: 0.203-0.726

## CCc1c2c(nc3ccc(OC(=O)N4CCC(N5CCCCC5)CC4)cc13)-c1cc3c(c(=O)n1C2)COC(=O)[C@]3(O)CC [Irinotecan]
[11]; [30]
  CI range: 0.258-0.892
[10]
  CI range: 0.039-0.837
[1]
  Synergy with pyrvinium pamoate: No
[12]
  CI range: 0.612-0.764
[13]
  CI range: 0.580-0.772
[14]
  CI range: 0.068-0.711
[15]
  Synergy with pyrvinium pamoate: No
[16]
  CI range: 0.652-0.827
[5]
  CI range: 0.235-0.705
[17]
  CI range: 0.582-0.878
[18]
  CI range: 0.719-0.891
[7]
  CI range: 0.362-0.885
[19]
  CI range: 0.158-0.866
[20]
  CI range: 0.445-0.697
[9]
  Synergy with pyrvinium pamoate: No
[21]
  Synergy with pyrvinium pamoate: No
[22]
  CI range: 0.438-0.783
[23]
  CI range: 0.285-0.855
[24]
  CI range: 0.324-0.872
[25]
  CI range: 0.414-0.760
[26]
  CI range: 0.466-0.803

## O=C1[O][Pt]2([NH][C@@H]3CCCC[C@H]3[NH]2)[O]C1=O [Oxaliplatin]
[11]
  CI range: Yes- (0.384-0.781)
[2]
  CI range: 0.340-0.884
[3]
  CI range: 0.354-0.865
[4]
  CI range: 0.307-0.870
[15]
  CI range: 0.083-0.831 and 0.089-0.851
[17]
  CI range: 0.375-0.889
[9]
  CI range: 0.254-0.802
[21]
  CI range: 0.558-0.871
[22]
  CI range: 0.447-0.703

## CC(=O)O[C@H]1C(=O)[C@@]2(C)[C@H]([C@H](OC(=O)c3ccccc3)[C@]3(O)C[C@H](OC(=O)[C@H](O)[C@@H](NC(=O)c4ccccc4)c4ccccc4)C(C)=C1C3(C)C)[C@]1(OC(C)=O)CO[C@@H]1C[C@@H]2O [Paclitaxel]
[11]; [30]
  CI range: 0.076-0.898
[10]
  CI range: 0.399-0.808
[1]
  CI range: (0.089-0.330)
[12]
  CI range: 0.586-0.884
[13]
  CI range: 0.573-0.862
[2]
  CI range: 0.232-0.830
[14]
  CI range: 0.073-0.876
[15]
  CI range: 0.178-0.820
[16]
  CI range: 0.552-0.870
[5]
  CI range: 0.262-0.773
[6]
  CI range: 0.277-0.894
[18]
  CI range: 0.545-0.868
[7]
  CI range: 0.078-0.847
[8]
  CI range: 0.255-0.847 and 0.296-0.785
[20]
  CI range: 0.451-0.761
[9]
  CI range: 0.613-0.899
[21]
  CI range: 0.640-0.888
[27]
  CI range: 0.479-0.873
[22]
  CI range: 0.527-0.896
[23]
  CI range: 0.571-0.887
[24]
  CI range: 0.362-0.829
[25]
  CI range: 0.104-0.877
[26]
  CI range: 0.254-0.721
[28]
  CI range: 0.367-0.857

## CCC1=C[C@@H]2CN(C1)Cc1c([nH]c3ccccc13)[C@@](C(=O)OC)(c1cc3c(cc1OC)N(C)[C@H]1[C@@](O)(C(=O)OC)[C@H](OC(C)=O)[C@]4(CC)C=CCN5CC[C@]31[C@@H]54)C2 [Vinorelbine]
JU-77 mesothelioma cells
  CI range: 0.454-0.717
LO-68 mesothelioma cells
  CI range: 0.163-0.845

## Cc1cc(/C=C/c2ccc3cc(N(C)C)ccc3[n+]2C)c(C)n1-c1ccccc1 [pyrvinium pamoate, 3-carboxy-1-[(3-carboxy-2-oxidonaphthalen-1-yl)methyl]naphthalen-2-olate;2-[(E)-2-(2,5-dimethyl-1-phenylpyrrol-3-yl)ethenyl]-N,N,1-trimethylquinolin-1-ium-6-amine]
[29]; FIG. 14
  growth of multiple rare cancer cell lines: inhibits growth
[29]; several rare cancer tumor cell lines, 72 hours, read-out: IC50s ranging
  IC50: 2 to 1000 nM
